Where “and” joins values, the source holds several entries; their conditions need not be identical. Identical values can stand only once. Like-named read-outs stand apart in the source and are kept apart here.
Columns and labels:
[1] = Distribution profile of prototype drug and rapamycin in plasma, liver and tumor of nude mice (LC-MS); format: in vivo; set-up: AUC0-t (ng · h/g or ng · h/ml): concentration or dose not given beside the values; settings: for concentration at 0.5 h / concentration at 2 h / concentration at 5 h: nude, mouse; for AUC0-t (ng · h/g or ng · h/ml): substance determined: Sirolimus
[2] = test system: normal mouse spleen B lymphocytes induced by LPS; assay: 3H-TdR incorporation, LPS-induced B lymphocyte proliferation; format: cell-based, BALB/c mice; settings: LPS, 48 hours, 3H-TdR, read-out: IC50, proliferation of B lymphocytes induced by LPS
Protocol: ^3H-thymidine incorporation was adopted to measure the effect of the in vitro administered compound on the proliferation function of the spleen lymphocytes of normal mice induced by a mixed culture of mitogen/allogeneic mouse spleen lymphocytes, and evaluate the in vitro immunosuppressive activity of the compound.
Measurement of the effects of compounds on the proliferation function of mouse spleen lymphocytes induced by mitogen by ^3H-TdR incorporation: 100 μl cell suspension of mouse spleen lymphocytes was inoculated on a 96-well plate (4×10^5 per well), followed by addition of 50 μl of ConA (final concentration: 5 μg/ml), 50 μl of LPS (final concentration: […]) or 50 μl of compound at different concentrations. The total volume of each well was 200 μl. The test was carried out in triplicate wells for each concentration, and included control wells without ConA/LPS or the compound. After the 96-well plate was placed in an incubator at 37° C. with 5% CO2 for 48 hours, 25 μl of ^3H-thymidine (10 μCi/ml) was added in each well 8 hours before the end of incubation. […] The amount of ^3H-TdR incorporated in cell DNA was determined by a Beta cell counter (MicroBeta Trilux, PerkinElmer), and the cell proliferation was represented as a cpm value.

[3] = test system: allogeneic antigen-induced mouse spleen lymphocytes; assay: Mixed lymphocyte culture, 3H-TdR incorporation; format: cell-based, C57BL/6 and BALB/C mice
Protocol: Preparation of Stimulator Cells: a Cell Suspension of Balb/C Mouse Spleen Lymphocytes was irradiated by cesium 137 at 3000 Rads using a Gamma radiometer (Gammacell 3000) to make the cells lose their proliferation ability. After washed by RPMI-1640 for 2 times, the cell concentration was adjusted to 5×10^6/ml.
Preparation of responder cells: C57BL/6 mouse spleen lymphocytes were used as the responder cells, and the cell concentration was 5×10^6/ml.
Mixed lymphocyte culture: 50 μl cell suspension of C57BL/6 mouse spleen lymphocytes was inoculated on a 96-well plate, and 50 μl cell suspension of BALB/C mouse spleen lymphocytes treated by cesium 137 was added therein, followed by addition of 50 μl compound at different concentrations. The total volume for each well was 200 μl. If the total volume was less than 200 μl, it was supplemented with RMPI-1640 medium. The tests were divided into 3 groups, i.e., BALB/C mouse group, C57BL/6 mouse group and BALB/C and C57BL/6 mice mixed culture group. The test was carried out in triplicate wells for each concentration, and included control wells without the compound, with only the stimulator cells and with only the responder cells. The 96-well plate was incubated in an incubator at 37° C. with 5% CO2 for 3 to 5 days. 8 hours before the end of incubation, 25 μl of ^3H-thymidine (10 μCi/ml) was added in each well. After the incubation was completed, cells were harvested by a cell harvester on a glass fiber film. After addition of a scintillation fluid, the amount of ^3H-TdR incorporated in cell DNA was determined by a Beta cell counter (MicroBeta Trilux, PerkinElmer), and the cell proliferation was represented as a cpm value.

[4] = test system: DNFB-induced delayed type hypersensitivity reaction; assay: DNFB-induced delayed type hypersensitivity reaction in mice; format: in vivo, BALB/c mice; settings: 1.5 mg/kg/d, intraperitoneal injection; model control 0.175 mm
Protocol: The delayed type hypersensitivity (DTH) reaction in mice was induced by DNFB to evaluate the inhibition effect of the compound on DTH in vivo. […] Preparation method: the compound was dissolved in anhydrous alcohol to prepare a stock solution (50 mg/ml), which was diluted to the desired concentration when use by using a solution of 5% PEG400, 5% Tween-80 in sterile water as a solvent. […] DNFB combined with dermal protein to form a complete antigen after sensitizing on feet of mice. One week later, mice were attacked by DNFB on ears to induce a local delayed allergic reaction, i.e., the delayed type hypersensitivity reaction to cause ear swelling, while the delayed type hypersensitivity reaction would not be observed on the ear which had not been attacked. Therefore, the ear swelling can reflect the level of the delayed type hypersensitivity reaction in mice induced by DNFB. (1) 20 μl of 0.5% DNFB solution in a mixture of acetone and olive oil (4:1) as a solvent was applied on both hind legs of mice for sensitization. […] (4) Thickness of the left and right ears of the mice was measured by a micrometer screw gauge, and the swelling was calculated by subtracting the thickness of the left ear from thickness of the right ear.

[5] = 0.5 h after administration, individual animals
[6] = 2.0 h after administration, individual animals
[7] = 5.0 h after administration, individual animals
[8] = 12 h after administration, individual animals
[9] = 48 h after administration, individual animals

CO[C@H]1C[C@@H]2CC[C@@H](C)[C@@](O)(O2)C(=O)C(=O)N2CCCC[C@H]2C(=O)O[C@H]([C@H](C)C[C@@H]2CC[C@@H](OC(=O)OCC(O)CO)[C@H](OC)C2)CC(=O)[C@H](C)/C=C(\C)[C@@H](O)[C@@H](OC)C(=O)[C@H](C)C[C@H](C)/C=C/C=C/C=C/1C (stereo partly drawn) [Y31]
Y31 (prototype) concentration, Blood Plasma [1, 5]: 2.47 ng/mL and 3.03 ng/mL
Y31 (prototype) concentration, Liver [1, 5]: 14.3 ng/g and 6.24 ng/g and 8.61 ng/g
Y31 (prototype) concentration, Tumor [1, 5]: BLQ (BLQ: below the limit of Quantitation, 0.2 ng/ml (blood plasma); 1.0 ng/g(tissue))
Y31 (prototype) concentration, Blood Plasma [1, 6]: 0.70 ng/mL and 0.58 ng/mL and 0.20 ng/mL
Y31 (prototype) concentration, Liver [1, 6]: 13.4 ng/g and 17.4 ng/g
Y31 (prototype) concentration, Tumor [1, 6]: BLQ (BLQ: below the limit of Quantitation, 0.2 ng/ml (blood plasma); 1.0 ng/g(tissue))
Y31 (prototype) concentration, Blood Plasma [1, 7]: BLQ (BLQ: below the limit of Quantitation, 0.2 ng/ml (blood plasma))
Y31 (prototype) concentration, Liver [1, 7]: 0.88 ng/g and 0.91 ng/g and 2.16 ng/g
Y31 (prototype) concentration, Tumor [1, 7]: BLQ (BLQ: below the limit of Quantitation, 0.2 ng/ml (blood plasma); 1.0 ng/g(tissue))
Y31 (prototype) concentration, Blood Plasma [1, 8]: BLQ (BLQ: below the limit of Quantitation, 0.2 ng/ml (blood plasma))
Y31 (prototype) concentration, Liver [1, 8]: BLQ (BLQ: below the limit of Quantitation, 0.2 ng/ml (blood plasma); 1.0 ng/g(tissue))
Y31 (prototype) concentration, Tumor [1, 8]: BLQ (BLQ: below the limit of Quantitation, 0.2 ng/ml (blood plasma); 1.0 ng/g(tissue))
Y31 (prototype) concentration, Blood Plasma [1, 9]: BLQ (BLQ: below the limit of Quantitation, 0.2 ng/ml (blood plasma))
Y31 (prototype) concentration, Liver [1, 9]: BLQ (BLQ: below the limit of Quantitation, 0.2 ng/ml (blood plasma); 1.0 ng/g(tissue))
Y31 (prototype) concentration, Tumor [1, 9]: BLQ (BLQ: below the limit of Quantitation, 0.2 ng/ml (blood plasma); 1.0 ng/g(tissue))
maximum concentration of the prototype drug in blood plasma and tissues ([1]; after administration to nude mice): less than 20 ng/ml or ng/g
prototype drug 5 hours after the administration ([1]; blood plasma and tissues): not detectable
concentration at 0.5 h ([1]; liver, 0.5 h after administration, mean of 3 animals, read-out: Y31 (prototype) concentration, Liver, Mean Value): 9.72 ng/g
concentration at 2 h ([1]; liver, 2.0 h after administration, individual animals, read-out: Y31 (prototype) concentration, Liver): 12.4 ng/g
concentration at 2 h ([1]; liver, 2.0 h after administration, mean of 3 animals, read-out: Y31 (prototype) concentration, Liver, Mean Value): 14.4 ng/g
concentration at 5 h ([1]; liver, 5.0 h after administration, mean of 3 animals, read-out: Y31 (prototype) concentration, Liver, Mean Value): 1.32 ng/g
concentration at 0.5 h ([1]; plasma, 0.5 h after administration, individual animals, read-out: Y31 (prototype) concentration, Blood Plasma): 1.7 ng/mL
concentration at 0.5 h ([1]; plasma, 0.5 h after administration, mean of 3 animals, read-out: Y31 (prototype) concentration, Blood Plasma, Mean Value): 2.4 ng/mL
concentration at 2 h ([1]; plasma, 2.0 h after administration, mean of 3 animals, read-out: Y31 (prototype) concentration, Blood Plasma, Mean Value): 0.49 ng/mL
concentration at 5 h ([1]; plasma, 5.0 h after administration, individual animals, read-out: Y31 (prototype) concentration, Blood Plasma): 0.18 ng/mL
AUC0-t (ng · h/g or ng · h/ml) ([1]; Liver): 4031 ng·h/g
AUC0-t (ng · h/g or ng · h/ml) ([1]; Tumor): 2948 ng·h/g
IC50 [2]: 97.8 nM
CPM Mean value ([3]; 0.1342 nM): 1338
CPM Mean value ([3]; 0.3355 nM): 1296
CPM Mean value ([3]; 0.8389 nM): 1202
CPM Mean value ([3]; 2.0972 nM): 1137
CPM Mean value ([3]; 5.2429 nM): 1131
CPM Mean value ([3]; 13.107 nM): 1137
CPM Mean value ([3]; 32.768 nM): 1189
CPM Mean value ([3]; 81.9 nM): 1314
CPM Mean value ([3]; 204.8 nM): 1090
CPM Mean value ([3]; 512 nM): 1436
CPM Mean value ([3]; 1280 nM): 1209
CPM Mean value ([3]; 3200 nM): 1132
CPM Mean value ([3]; 8000 nM): 1190
CPM Mean value ([3]; 20000 nM): 815
inhibition at 0.0001342 µM ([3]; Mus musculus, Lymphocyte, 0.1342 nM): 82%
inhibition at 0.0003355 µM ([3]; Mus musculus, Lymphocyte, 0.3355 nM): 82%
inhibition at 0.0008389 µM ([3]; Mus musculus, Lymphocyte, 0.8389 nM): 84%
inhibition at 0.0020972 µM ([3]; Mus musculus, Lymphocyte, 2.0972 nM): 85%
inhibition at 0.0052429 µM ([3]; Mus musculus, Lymphocyte, 5.2429 nM): 85%
inhibition at 0.013107 µM ([3]; Mus musculus, Lymphocyte, 13.107 nM): 85%
inhibition at 0.032768 µM ([3]; Mus musculus, Lymphocyte, 32.768 nM): 84%
inhibition at 0.0819 µM ([3]; Mus musculus, Lymphocyte, 81.9 nM): 82%
inhibition at 0.2048 µM ([3]; Mus musculus, Lymphocyte, 204.8 nM): 85%
inhibition at 0.512 µM ([3]; Mus musculus, Lymphocyte, 512 nM): 80%
inhibition at 1.28 µM ([3]; Mus musculus, Lymphocyte, 1280 nM): 84%
inhibition at 3.2 µM ([3]; Mus musculus, Lymphocyte, 3200 nM): 85%
inhibition at 8 µM ([3]; Mus musculus, Lymphocyte, 8000 nM): 84%
inhibition at 20 µM ([3]; Mus musculus, Lymphocyte, 20000 nM): 89%
average ear swelling degree [4]: 0.129 mm

From patent publication US8455510B2
